Data from US7897614B2, “Preventive agent/remedial agent for constipation predominant IBS” (Mitsubishi Tanabe Pharma Corporation, priority 2001, dated 2011).
“Also recorded” adds a separate entry of the source.

Columns and labels:
[1] = tested on: patients suffering from constipation predominant IBS; test: Double blind clinical test in patients with constipation predominant IBS (Rome II criteria); type: in vivo, human
Description: Clinical effects of the medicament of the present invention on patients suffering from constipation predominant IBS were studied (in accordance with Rome II diagnosis criteria).
The test conducted here was a double blind test by two groups. […] Administration period consisted of 2-week screening and 4 week treatment. […] In addition, an ameliorating ratio of each symptom, that is, stool state, difficulty in defecation, feeling of residual stool after defecation, abdominal bloating, abdominal discomfort and abdominal pain is shown in FIG. 1

IBS patients = conditions: score 2 = marginal improvement, 3 = small improvement; Br J Pharm Pract 1987; cited from earlier work
[2] = 0.2 mg twice a day, 4 week treatment, 9 patients in the group

Row | Molecule | Ameliorating ratio of each symptom (stool state, difficulty in defecation, residual stool feeling, abdominal bloating, discomfort, pain), FIG. 1 ([1]; 0.2 mg group compared with placebo group) | Total impression of the patients: Aggravated (number of patients) [1, 2] | Total impression of the patients: Highly effective (number of patients) [1, 2] | Total impression of the patients: Moderately effective (number of patients) [1, 2] | Total impression of the patients: Not effective (number of patients) [1, 2] | Total impression of the patients: Slightly effective (number of patients) [1, 2] | Effectiveness relative to the placebo group ([1]; 0.2 mg twice a day, 4 weeks) | Ratio of effectiveness (total percentage of highly effective and moderately effective cases) ([1]; 0.2 mg twice a day, 4 weeks, placebo group 30%) [%] | Mean subjective score (IBS patients)
1 | O=C(N[C@H]1CN2CCC1CC2)c1cnc2ccsc2c1O [the medicament of the present invention, (R)-N-(1-azabicyclo[2.2.2]oct-3-yl)-7-hydroxythieno[3,2-b]-pyridine-6-carboxamide] | exhibited an ameliorating ratio exceeding the placebo group in any symptoms | 0 | 0 | 5 | 2 | 2 | about twice; also recorded: about two fold | 56 | 
2 | sennoside |  |  |  |  |  |  |  |  | 2.7
